Source: patent publication US4255183A, “Substituted phenyl urea and herbicides for use in paddy field” (Hokko Chemical Industry Co., Ltd., priority 1977, dated 1981)
Like-named read-outs stand apart in the source and are kept apart here.

Columns and labels:
[1] = test system: Echinochloa crus-galli var. oryzicola; experiment: Test Example 2: concrete pot test on killing effect, Echinochloa crus-galli var. oryzicola; format: in vivo; conditions: for inhibition at 1000 g/ha / inhibition at 3000 g/ha / inhibition at 9000 g/ha: Echinochloa crus-galli, 720 h; for Inhibition (%) by treatment at 1-leaf stage of E. crus-galli var. oryzicola, E. crus-galli var. oryzicola / Inhibition (%) by treatment at 5-leaf stage of E. crus-galli var. oryzicola, E. crus-galli var. oryzicola: granule, 30 days after treatment
Description: (§1) In a Wagner pot of 1/500 are, paddy field soil (alluvial soil) was placed and 50 seeds of Echinochloa crus-galli var. oryzicola and 30 seeds of paddy rice were seeded in the surface layer of said soil and the submerging depth was kept at about 1 cm. When Echinochloa crus-galli var. oryzicola reached at the one leaf stage and 5-leaf stage, the emulsion of a predetermined concentration, prepared according to Example 4 was added dropwise. After 30 days from the treatment with the chemical, dry weights of Echinochloa crus-galli var. oryzicola and paddy rice were measured and the inhibition rate was calculated with reference to untreated area. [formula]
(§2) In a concrete pot of 1/400 are (50 cm×50 cm), paddy field soil (alluvial soil) was placed and 200 seeds of Echinochloa crus-galli var. oryzicola were seeded in 10 surface layer of said soil and the soil was submerged at about 3 cm depth. Before emergence of Echinochloa crus-galli var. oryzicola, paddy rice at 2.5-leaf stage (Asahi species) was transplanted at the rate of 8 stubs per pot, planting 3 seedlings per stub. At the one-leaf stage (3.5 leaves stage of paddy rice) and 5 leaves stage (7 leaves stage of paddy rice) of Echinochloa crus-galli var. oryzicola, the granule prepared according to Example 1 was applied. […] 30 Days after the treatment with the chemical, examination was made in the similar manner as Test Example 1 to obtain results as shown in Table 2.
(§3) In the table, as the comparative chemicals CPN, Benthiocarb, Molinate and Simetryne, those commercially available were used and the comparative chemicals A and B (as mentioned before) used were prepared according to the process for preparing the compound of this invention.

paddy rice [2] = experiment: whole plant or invertebrate; format: in vivo, paddy rice (Asahi species); conditions: for inhibition at 1000 g/ha / inhibition at 3000 g/ha / inhibition at 9000 g/ha: Oryza sativa, 720 h; for Inhibition (%) by treatment at 1-leaf stage of E. crus-galli var. oryzicola, paddy rice / Inhibition (%) by treatment at 5-leaf stage of E. crus-galli var. oryzicola, paddy rice: granule, 30 days; for Inhibition (%) by treatment at 1-leaf stage of E. crus-galli var. oryzicola, paddy rice: rice at 3.5 leaves stage; for Inhibition (%) by treatment at 5-leaf stage of E. crus-galli var. oryzicola, paddy rice: rice at 7 leaves stage
Description: as §1, §2, §3

[3] = test system: Echinochloa crus-galli var. oryzicola; experiment: Test Example 4: field test in submerged directly seeded paddy field, Echinochloa crus-galli var. oryzicola; format: in vivo; conditions: Echinochloa crus-galli, 504 h; 300 g/10 are, emulsion, 2- to 3-leaf stage, 21 days after application; read-out: Inhibition (%) of E. crus-galli var. oryzicola
Description: as §1
(§4) In a 10 m^2 paddy field, 30 g of Echinochloa crus-galli var. oryzicola seeds were seeded at the time of puddling and the depth of submerging was kept at 3-5 cm. 3 Days after the puddling, 50 g of paddy rice at the emergence stage (Asahi species) were seeded. When Echinochloa crus-galli var. oryzicola and paddy rice reached a 2- to 3-leaf stage, a predetermined dose of the emulsion prepared according to Example 4 was applied uniformly by means of a manual spraying machine. Test results were examined 21 days after the application of the chemicals in the similar manner as in Test Example 1.
(§5) The comparative chemical 1 used was that commercially available and the comparative chemical 2 used was prepared according to Example 4.

paddy rice [4] = experiment: Test Example 4: field test in submerged directly seeded paddy field, paddy rice; format: in vivo, paddy rice (Asahi species); conditions: Oryza sativa, 504 h; 300 g/10 are, emulsion, 2- to 3-leaf stage, 21 days after application
Description: as §1, §4, §5

Bulrush = experiment: Test Example 5: Wagner pot test, herbicidal effect on Bulrush; format: in vivo; conditions: 600 g/10a
Description: (§6) In a 1/7500 are Wagner pot, sieved paddy field soil (alluvial soil) was charged. Thereafter, in the center portion of the pot, 2 roots of paddy rice (Asahi species) at the 2- to 3-leaf stage were transplanted and 20 seeds of Bulrush per pot were seeded in the surface of the above soil. The pot was submerged at the depth of about 2 cm. The other Dopatrium junceum and umbrella plant were generated naturally. After seeding, when each of the weeds reached the same leaf age as defined in Table 5 given herein, a predetermined concentration of the emulsion prepared according to Example 4 was applied dropwise on the surface of the pot. The test was carried out by repeating the same test three times per area and the results were determined 20 days after the application of the chemicals with regard to the herbicidal effect and chemical injury on paddy rice on the basis of the evaluation index as shown below.
(§7) As the comparative chemicals Molinate, Benthiocarb and DCMU, those commercially available were used.
(§8) In the above table, the inhibition rate was calculated according to the method as described in Test Example 1.

Dopatrium junceum = experiment: Test Example 5: Wagner pot test, herbicidal effect on Dopatrium junceum; format: in vivo; conditions: 600 g/10a
Description: as §6, §7, §8

Umbrella plant = experiment: Test Example 5: Wagner pot test, herbicidal effect on umbrella plant; format: in vivo; conditions: 600 g/10a, 20 days after application
Description: as §6, §7, §8

paddy rice [5] = experiment: Test Example 5: Wagner pot test, chemical injury on paddy rice; format: in vivo, paddy rice (Asahi species); conditions: 600 g/10a; also: key: 5: Completely killed; 4: Considerably injured; 3: Moderately injured; 2: A little injured; 1: Slightly injured; 0: Not injured
Description: as §6, §7

[6] = test system: Echinochloa crus-galli var. oryzicola; experiment: Test Example 1: pot test on selectivity, inhibition of Echinochloa crus-galli var. oryzicola; format: in vivo; conditions: dry weight 30 days after treatment
Description: as §1
(§9) The comparative chemicals used, i.e. DCMU and Linuron, were those commercially available, and the comparative chemicals A and B used were prepared according to the process for formulating the compound of this invention.

paddy rice [7] = experiment: Test Example 1: pot test on selectivity, inhibition of paddy rice; format: in vivo; conditions: dry weight 30 days after treatment
Description: as §1, with “When Echinochloa crus-galli var. oryzicola reached at the one leaf stage and 5-leaf stage, the emulsion of a predetermined concentration, prepared according to Example 4 was added dropwise.” left out
as §9

[8] = read-out: Inhibition (%) by treatment at 1-leaf stage of E. crus-galli var. oryzicola, E. crus-galli var. oryzicola
[9] = read-out: Inhibition (%) by treatment at 5-leaf stage of E. crus-galli var. oryzicola, E. crus-galli var. oryzicola
[10] = read-out: Inhibition (%) by treatment at 1-leaf stage of E. crus-galli var. oryzicola, paddy rice
[11] = read-out: Inhibition (%) by treatment at 5-leaf stage of E. crus-galli var. oryzicola, paddy rice
[12] = leaf age 3, 20 days after application

For CCN(CC)C(=O)SCc1ccc(Cl)cc1 [Benthiocarb, 4-chlorobenzyl-N,N-diethylthiolcarbamate], the inhibition at 1000 g/ha [1, 8] was 82%, the inhibition at 3000 g/ha [1, 8] was 100% and the inhibition at 9000 g/ha [1, 8] was 100%. It also gave an inhibition at 1000 g/ha [1, 9] of 0%, an inhibition at 3000 g/ha [1, 9] of 6% and an inhibition at 9000 g/ha [1, 9] of 23%. The inhibition at 1000 g/ha (paddy rice [2]; [10]) was 0%, the inhibition at 3000 g/ha (paddy rice [2]; [10]) was 10% and the inhibition at 9000 g/ha (paddy rice [2]; [10]) was 46%. For the same compound, the inhibition at 1000 g/ha (paddy rice [2]; [11]) was 0%, the inhibition at 3000 g/ha (paddy rice [2]; [11]) was 0% and the inhibition at 9000 g/ha (paddy rice [2]; [11]) was 10%. The inhibition at 3000 g/ha [3] was 76%, the inhibition at 3000 g/ha (paddy rice [4]) was 15% and the “Weed kill degree, Bulrush” value (Bulrush; [12]) was 2 (60-79). For the same compound, the “Weed kill degree, Bulrush” value (Bulrush; leaf age 3-5, 20 days after application) was 4 (90-99), the “Weed kill degree, Dopatrium junceum” value (Dopatrium junceum; leaf age 2, 20 days after application) was 5 (100) and the “Weed kill degree, Dopatrium junceum” value (Dopatrium junceum; [12]) was 5 (100). For the same compound, the “Weed kill degree, Umbrella plant” value (Umbrella plant; leaf age 2 (first group of columns)) was 5 (100), the “Weed kill degree, Umbrella plant” value (Umbrella plant; leaf age 2 (second group of columns)) was 5 (100) and the “Chemical injury on paddy rice” value (paddy rice [5]; 3 tillers, 20 days after application) was 0. For the same compound, the “Chemical injury on paddy rice” value (paddy rice [5]; [12]) was 2.

In the case of CNC(=O)Nc1ccc(OCC=C(C)Cl)cc1 [Comparative chemical B], the “Inhibition (%) by treatment at 1-leaf stage, E. crus-galli var. oryzicola” value ([6]; 75 g/10 are) is reported as 10%, the “Inhibition (%) by treatment at 5-leaf stage, E. crus-galli var. oryzicola” value ([6]; 75 g/10 are) is reported as 0% and the “Inhibition (%) by treatment at 1-leaf stage, E. crus-galli var. oryzicola” value ([6]; 150 g/10 are) is reported as 35%. The “Inhibition (%) by treatment at 5-leaf stage, E. crus-galli var. oryzicola” value ([6]; 150 g/10 are) was 0%, the “Inhibition (%) by treatment at 1-leaf stage, E. crus-galli var. oryzicola” value ([6]; 300 g/10 are) was 80% and the “Inhibition (%) by treatment at 5-leaf stage, E. crus-galli var. oryzicola” value ([6]; 300 g/10 are) was 7%. The “Inhibition (%) by treatment at 1-leaf stage, E. crus-galli var. oryzicola” value ([6]; 600 g/10 are) was 100%, the “Inhibition (%) by treatment at 5-leaf stage, E. crus-galli var. oryzicola” value ([6]; 600 g/10 are) was 12% and the “Inhibition (%) by treatment at 1-leaf stage, E. crus-galli var. oryzicola” value ([6]; 900 g/10 are) was 100%. The “Inhibition (%) by treatment at 5-leaf stage, E. crus-galli var. oryzicola” value ([6]; 900 g/10 are) was 36%, the “Inhibition (%) by treatment at 1-leaf stage, paddy rice” value (paddy rice [7]; 75 g/10 are) was 0% and the “Inhibition (%) by treatment at 5-leaf stage, paddy rice” value (paddy rice [7]; 75 g/10 are) was 0%. For the same compound, the “Inhibition (%) by treatment at 1-leaf stage, paddy rice” value (paddy rice [7]; 150 g/10 are) was 0%, the “Inhibition (%) by treatment at 5-leaf stage, paddy rice” value (paddy rice [7]; 150 g/10 are) was 0% and the “Inhibition (%) by treatment at 1-leaf stage, paddy rice” value (paddy rice [7]; 300 g/10 are) was 36%. The “Inhibition (%) by treatment at 5-leaf stage, paddy rice” value (paddy rice [7]; 300 g/10 are) was 0%, the “Inhibition (%) by treatment at 1-leaf stage, paddy rice” value (paddy rice [7]; 600 g/10 are) was 60% and the “Inhibition (%) by treatment at 5-leaf stage, paddy rice” value (paddy rice [7]; 600 g/10 are) was 7%. For the same compound, the “Inhibition (%) by treatment at 1-leaf stage, paddy rice” value (paddy rice [7]; 900 g/10 are) was 72%, the “Inhibition (%) by treatment at 5-leaf stage, paddy rice” value (paddy rice [7]; 900 g/10 are) was 26% and the “Inhibition (%) by treatment at 1-leaf stage of E. crus-galli var. oryzicola, E. crus-galli var. oryzicola” value ([1]; 100 g/10 are) was 20%. For the same compound, the “Inhibition (%) by treatment at 5-leaf stage of E. crus-galli var. oryzicola, E. crus-galli var. oryzicola” value ([1]; 100 g/10 are) was 0%, the “Inhibition (%) by treatment at 1-leaf stage of E. crus-galli var. oryzicola, E. crus-galli var. oryzicola” value ([1]; 300 g/10 are) was 75% and the “Inhibition (%) by treatment at 5-leaf stage of E. crus-galli var. oryzicola, E. crus-galli var. oryzicola” value ([1]; 300 g/10 are) was 0%. The “Inhibition (%) by treatment at 1-leaf stage of E. crus-galli var. oryzicola, E. crus-galli var. oryzicola” value ([1]; 900 g/10 are) was 100%, the “Inhibition (%) by treatment at 5-leaf stage of E. crus-galli var. oryzicola, E. crus-galli var. oryzicola” value ([1]; 900 g/10 are) was 30% and the “Inhibition (%) by treatment at 1-leaf stage of E. crus-galli var. oryzicola, paddy rice” value (paddy rice [2]; 100 g/10 are) was 0%. For the same compound, the “Inhibition (%) by treatment at 5-leaf stage of E. crus-galli var. oryzicola, paddy rice” value (paddy rice [2]; 100 g/10 are) was 0%, the “Inhibition (%) by treatment at 1-leaf stage of E. crus-galli var. oryzicola, paddy rice” value (paddy rice [2]; 300 g/10 are) was 0% and the “Inhibition (%) by treatment at 5-leaf stage of E. crus-galli var. oryzicola, paddy rice” value (paddy rice [2]; 300 g/10 are) was 0%. The “Inhibition (%) by treatment at 1-leaf stage of E. crus-galli var. oryzicola, paddy rice” value (paddy rice [2]; 900 g/10 are) was 40% and the “Inhibition (%) by treatment at 5-leaf stage of E. crus-galli var. oryzicola, paddy rice” value (paddy rice [2]; 900 g/10 are) was 7%.
